SMILES strings stand for the structures. Values joined by “and” are separate entries in the source; they are usually repeats but may differ in a detail not shown here. Identical values can stand only once.

The target of one data set is T1, mGlu1 A59H/G266H mutant (Rattus norvegicus, UniProt P23385, A59H/G266H).
T1 construct: expressed in transfected cells; host or cells: HEK293
In words: Fura-2 Ca2+ imaging in HEK293 cells expressing mGlu1 A59H/G266H. The data set is classed as cell-based. Particulars: single-cell values.

Data set [1] relates to HEK293 cells, control vector. In words: Inositol-1-phosphate (IP1) accumulation assay, HEK293 cells transfected with control vector. The class given is cell-based. Particulars: 30 µM Pd(bpy); Vec.
The next data set has as its target T2, mGlu1 P57H/N264H mutant (Rattus norvegicus, UniProt P23385, N264H/P57H).
T2 construct: expressed in transfected cells; host or cells: HEK293
In words: Fura-2 Ca2+ imaging in HEK293 cells expressing mGlu1 P57H/N264H. The class given is cell-based. Particulars: single-cell values #1-#20; P57H/N264H.

A further data set addresses T3, mGlu1 E60H/N264H mutant (Rattus norvegicus, UniProt P23385, E60H/N264H).
T3 construct: expressed in transfected cells; host or cells: HEK293
In words: Fura-2 Ca2+ imaging in HEK293 cells expressing mGlu1 E60H/N264H. The class given is cell-based. Particulars: single-cell values #1-#20; E60H/N264H.

For another data set, the target named is T4, mGlu1(N264H) mutant (Rattus norvegicus, UniProt P23385, N264H).
T4 construct: expressed in transfected cells; host or cells: HEK293
In words: Fura-2 Ca2+ imaging in HEK293 cells expressing mGlu1(N264H). The data set is classed as cell-based.

In the next data set the target is T5, mGlu1 K61H/N264H mutant (Rattus norvegicus, UniProt P23385, K61H/N264H).
T5 construct: expressed in transfected cells; host or cells: HEK293
In words: Fura-2 Ca2+ imaging in HEK293 cells expressing mGlu1 K61H/N264H. The class given is cell-based.

Another data set deals with PC12 cells. In words: Cell proliferation assay of undifferentiated PC12 cells. The settings on record: for cell proliferation, Ave (Fig.4c): average of #1-#3.
The target of a further data set is T6, mGlu1 A59H/A265H mutant (Rattus norvegicus, UniProt P23385, A265H/A59H).
T6 construct: expressed in transfected cells; host or cells: HEK293
In words: Fura-2 Ca2+ imaging in HEK293 cells expressing mGlu1 A59H/A265H. The class given is cell-based. Particulars: single-cell values.

Setting [2] is: HEK293 cells, Fura-2, read-out: EC50, Ca2+ response (Δratio).

T3 sequence (P23385 19-1199 E60H/N264H): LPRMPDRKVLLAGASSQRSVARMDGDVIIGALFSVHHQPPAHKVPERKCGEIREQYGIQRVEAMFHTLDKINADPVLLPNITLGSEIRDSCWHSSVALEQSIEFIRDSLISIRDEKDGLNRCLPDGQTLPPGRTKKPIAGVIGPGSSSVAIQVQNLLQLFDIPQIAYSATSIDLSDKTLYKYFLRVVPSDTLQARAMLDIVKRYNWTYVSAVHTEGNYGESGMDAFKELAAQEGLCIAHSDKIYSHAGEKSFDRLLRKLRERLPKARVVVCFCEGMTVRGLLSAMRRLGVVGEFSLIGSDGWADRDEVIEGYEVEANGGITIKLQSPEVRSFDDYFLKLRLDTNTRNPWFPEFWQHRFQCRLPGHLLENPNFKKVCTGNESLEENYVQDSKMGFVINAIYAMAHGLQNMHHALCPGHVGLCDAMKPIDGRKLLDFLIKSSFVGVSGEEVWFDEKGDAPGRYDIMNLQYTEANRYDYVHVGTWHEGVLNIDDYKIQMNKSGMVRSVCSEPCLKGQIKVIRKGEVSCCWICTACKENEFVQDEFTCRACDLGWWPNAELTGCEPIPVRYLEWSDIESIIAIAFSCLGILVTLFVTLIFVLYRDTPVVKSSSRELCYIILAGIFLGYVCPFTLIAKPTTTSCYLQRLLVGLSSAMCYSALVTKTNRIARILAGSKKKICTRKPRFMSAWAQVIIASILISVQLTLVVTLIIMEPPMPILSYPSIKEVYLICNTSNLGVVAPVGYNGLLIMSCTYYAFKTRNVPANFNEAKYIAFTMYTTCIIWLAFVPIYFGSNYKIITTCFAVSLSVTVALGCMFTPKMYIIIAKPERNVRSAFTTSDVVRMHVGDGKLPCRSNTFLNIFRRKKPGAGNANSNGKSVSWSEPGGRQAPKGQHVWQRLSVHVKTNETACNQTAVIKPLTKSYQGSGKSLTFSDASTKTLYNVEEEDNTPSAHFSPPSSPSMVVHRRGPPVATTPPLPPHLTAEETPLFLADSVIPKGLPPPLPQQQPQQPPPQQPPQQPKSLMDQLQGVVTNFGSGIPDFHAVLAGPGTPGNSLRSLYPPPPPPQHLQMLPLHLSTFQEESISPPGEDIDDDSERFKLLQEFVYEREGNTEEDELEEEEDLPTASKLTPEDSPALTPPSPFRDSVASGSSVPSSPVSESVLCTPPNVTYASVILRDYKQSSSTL
T4 sequence (P23385 19-1199 N264H): as the sequence (P23385 19-1199 E60H/N264H) above, with H42E counted along it
T2 sequence (P23385 19-1199 P57H/N264H): as the sequence (P23385 19-1199 E60H/N264H) above, with P39H, H42E counted along it
T1 sequence (P23385 19-1199 A59H/G266H): as the sequence (P23385 19-1199 E60H/N264H) above, with A41H, H42E, H246N, G248H counted along it
T6 sequence (P23385 19-1199 A59H/A265H): as the sequence (P23385 19-1199 E60H/N264H) above, with A41H, H42E, H246N, A247H counted along it
T5 sequence (P23385 19-1199 K61H/N264H): as the sequence (P23385 19-1199 E60H/N264H) above, with H42E, K43H counted along it

`O=[N+]([O-])[O-].O=[N+]([O-])[O-].[Pd+2].c1ccc(-c2ccccn2)nc1` [Pd(bpy), Pd(bpy)(NO3)2]: the “Ca2+ response of individual cells (source data Suppl Fig1), A59H/G266H” value at mGlu1 A59H/G266H mutant is 0.2879 and 0.01529 and 0.1021 and -0.0047 and 0.3807 and 0.03304 and 0.0004923 and 0.02376 and -0.0301 and -0.02225 and 0.0004846 and -0.005677 and 0.7275 and 0.6736. The “IP1 accumulation, single experiments” value in data set [1] is 1.069 and 0.9695 and 0.8004. Besides, at mGlu1 P57H/N264H mutant, the “Ca2+ response of individual cells (source data Suppl Fig1), P57H/N264H” value was 1.496 and 0.4197 and 0.3632 and 0.5618 and 0.3459 and 0.2699 and 0.5435 and -0.005777 and 0.04309 and 0.04215 and 0.5777 and 1 and 0.77 and 0.6187 and 0.5778 and -0.002723 and 0.1859 and 0.08165 and 0.3295 and 0.5272. Further, the “Ca2+ response of individual cells (source data Suppl Fig1), E60H/N264H” value on mGlu1 E60H/N264H mutant is -0.015 and 0.1464 and 0.05592 and 0.009469 and 0.1218 and 0.005362 and 1.129 and 0.9384 and 0.8641 and 0.6693 and 0.02784 and 0.0255 and 0.002069 and -0.0022 and -0.0079 and 0.08848 and 0.002385 and -0.01194 and -0.01146 and 0.1752. In addition, the “Positive allosteric effect: dose-dependency of glutamate-induced responses” value on mGlu1(N264H) mutant (3 µM Pd(bpy) in the presence of 10 µM LY367385) is given as “unaffected”. Also, the “Time to basal level after wash-out by culture medium” value at mGlu1(N264H) mutant (10 µM agonist, n = 15) was 49.0 ± 6.4 s. Moreover, the figures for the EC50 on mGlu1(N264H) mutant (setting [2]) and at mGlu1 K61H/N264H mutant (setting [2]) were 1600 nM and 2300 nM, respectively. Also, the “Pd(bpy) off” value at mGlu1(N264H) mutant (ave of 15 cells) is 49 s. Also, at mGlu1(N264H) mutant (ave of 15 cells), the “Pd(bpy) on” value turned out to be 58 s. Besides, at mGlu1(N264H) mutant (in the presence of LY367385, P = 0.3803), the “Effect on 100 μM glutamate-induced response” value was “not enhanced”. At mGlu1(N264H) mutant (single-cell values), the “Ca2+ response to Pd complex, individual cells #1-#20 (Fig.4e)” value is 0.1987 and 0.007031 and 0.6462 and 0.6597 and 0.6897 and 0.134 and 0.5276 and 0.6019 and 0.1524 and 0.7025 and 0.5861 and 1.131 and 0.7531 and 0.5352 and 0.5053 and 0.4553 and 0.9996 and 0.7233 and 0.7477 and 0.221. At mGlu1 K61H/N264H mutant (single-cell values, K61H/N264H), the “Ca2+ response of individual cells (source data Suppl Fig1), K61H/N264H” value was 0.2703 and 0.5297 and 0.971 and -0.1576 and 0.5357 and 0.5344 and 1.086 and 1.005 and 0.6767 and 0.2693 and 0.4514 and -0.009392 and 0.06739 and -0.01372. Besides, in the data set on PC12 cells (30 μM), the Cell growth result is on record as “clearly suppressed”. Further, the “cell proliferation, single experiments #1-#3 (Fig.4c)” value with PC12 cells (Pd complex 1 µM) is 1.5318 and 0.8604 and 0.8836; in the data set on PC12 cells (Pd complex 3 µM), 1.071 and 0.9613 and 0.8889; with PC12 cells (Pd complex 10 µM), 1.234 and 0.8888 and 0.7605; with PC12 cells (Pd complex 30 µM) it was 0.9447 and 0.7842 and 0.619. The “cell proliferation, Ave (Fig.4c)” value stood at 1.092 in the data set with PC12 cells (Pd complex 1 µM); 0.9739 with PC12 cells (Pd complex 3 µM); 0.961 in the data set with PC12 cells (Pd complex 10 µM); 0.7826 in the data set on PC12 cells (Pd complex 30 µM); 0.07957 in the data set on PC12 cells (Pd complex 100 µM). In addition, the “Ca2+ response of individual cells (source data Suppl Fig1), A59H/A265H” value on mGlu1 A59H/A265H mutant is -0.002885 and -0.009254 and 0.08719 and 0.008869 and -0.009738 and 0.003808 and 0.004285 and 0.02012 and -0.02372 and -0.01536 and -0.009285 and -0.02246 and 0.01085 and 0.1127.

For the origin of these results see article PMC9203742 (Nature Communications, 2022).
